In PMC4492758 (Pharmacology Research & Perspectives, 2015):
Where “and” joins values, the source holds several entries; their conditions need not be identical. Equal entries are not always repeated. Entries after “also recorded” stand apart in the source; their conditions may differ. Structures can show the parent of a compound that is named as a salt. Where two headings read alike, the source gives them in different places. Marks after values point to notes of the source that are not given here. Values belong to the compound of their own block, whether it stands above or below them.

What was measured:
[1] = tested on: sham-operated and olfactory bulbectomized rats; test: Olfactory bulbectomy model, emotional scoring; assay type: in vivo, rat
Human adrenergic α2C = Human adrenergic α2C (Homo sapiens, UniProt P18825); test: Off-target radioligand binding assay; conditions: read-out: Percentage inhibition at 1 μmol/L
[2] = tested on: sham-operated and olfactory bulbectomized rats; test: Olfactory bulbectomy model, open-field test; assay type: in vivo, rat
Human serotonin 5-HT1B = Human serotonin 5-HT1B (Homo sapiens, UniProt P28222); test: Off-target radioligand binding assay; conditions: read-out: Percentage inhibition at 1 μmol/L
Human adrenergic α2A = Human adrenergic α2A (Homo sapiens, UniProt P08913); test: Off-target radioligand binding assay; conditions: read-out: Percentage inhibition at 1 μmol/L
Rat GABAA = test: Off-target radioligand binding assay; conditions: [3H] Flunitrazepam 0.88 nmol/L
Suncus murinus [3] = test: Evaluation of emesis in Suncus murinus, experiment 1; assay type: in vivo; conditions: for Number of animals vomited/tested: single dose, 60 min observation; for Total emetic episode: 1 h observation, animals that vomited
Human opiate κ = Human opiate κ (Homo sapiens, UniProt P41145); test: Off-target radioligand binding assay; conditions: read-out: Percentage inhibition at 1 μmol/L
Human adrenergic α2B = Human adrenergic α2B (Homo sapiens, UniProt P18089); test: Off-target radioligand binding assay; conditions: read-out: Percentage inhibition at 1 μmol/L
[4] = biological target: pig catechol-O-methyltransferase (Sus scrofa, UniProt Q99028); assay type: biochemical; conditions: read-out: percent inhibition
[5] = biological target: human monoamine oxidase -B (Homo sapiens, UniProt P27338); test: Off-target enzyme assay, 14C-labeled substrate; assay type: biochemical; conditions: read-out: percent inhibition
[6] = biological target: rat serotonin transporter (Rattus norvegicus, UniProt P31652); test: Rat SERT binding, [3H]citalopram, rat cerebral cortex membranes
rats [7] = test: Conditioned taste aversion test in rats; conditions: 100 mg kg^−1; Day 4, 24 h after administration, vs vehicle
Human dopamine D3 = Human dopamine D3 (Homo sapiens, UniProt P35462); test: Off-target radioligand binding assay
[8] = tested on: extracellular 5-HT levels in the rat frontal cortex; test: Rat microdialysis, extracellular 5-HT; assay type: in vivo; conditions: for maximum increase of 5-HT extracellular levels, % of baseline value: 100 min after administration, mean ± SEM
Human musucarinic M2 = Human musucarinic M2 (Homo sapiens, UniProt P08172); test: Off-target radioligand binding assay; conditions: read-out: Percentage inhibition at 1 μmol/L
Human histamine H2 = Human histamine H2 (Homo sapiens, UniProt P25021); test: Off-target radioligand binding assay; conditions: read-out: Percentage inhibition at 1 μmol/L
Human serotonin 5-HT7 = Human serotonin 5-HT7 (Homo sapiens, UniProt P34969); test: Off-target radioligand binding assay
Human serotonin 5-HT6 = Human serotonin 5-HT6 (Homo sapiens, UniProt P50406); test: Off-target radioligand binding assay; conditions: read-out: Percentage inhibition at 1 μmol/L
Human serotonin 5-HT5A = Human serotonin 5-HT5A (Homo sapiens, UniProt P47898); test: Off-target radioligand binding assay; conditions: read-out: Percentage inhibition at 1 μmol/L
Human serotonin 5-HT2A = Human serotonin 5-HT2A (Homo sapiens, UniProt P28223); test: Off-target radioligand binding assay; conditions: read-out: Percentage inhibition at 1 μmol/L
Human dopamine D2L = Human dopamine D2L (Homo sapiens, UniProt P14416); test: Off-target radioligand binding assay; conditions: read-out: Percentage inhibition at 1 μmol/L
Human musucarinic M1 = Human musucarinic M1 (Homo sapiens, UniProt P11229); test: Off-target radioligand binding assay; conditions: read-out: Percentage inhibition at 1 μmol/L
Human serotonin 5-HT3 = Human serotonin 5-HT3 (Homo sapiens, UniProt P46098); test: Off-target radioligand binding assay; conditions: read-out: Percentage inhibition at 1 μmol/L
[9] = tested on: dopamine extracellular levels in the rat frontal cortex; test: Rat microdialysis, extracellular dopamine; assay type: in vivo; conditions: any dose (1, 3, 10 mg kg^−1 p.o.)
Human serotonin 5-HT2B = Human serotonin 5-HT2B (Homo sapiens, UniProt P41595); test: Off-target radioligand binding assay
Human opiate δ = Human opiate δ (Homo sapiens, UniProt P41143); test: Off-target radioligand binding assay; conditions: read-out: Percentage inhibition at 1 μmol/L
Human adrenergic β3 = Human adrenergic β3 (Homo sapiens, UniProt P13945); test: Off-target radioligand binding assay; conditions: read-out: Percentage inhibition at 1 μmol/L
Suncus murinus [10] = conditions: 60 mg kg^−1 po, 19 animals per group
[11] = biological target: guinea pig serotonin 5-HT4 (Cavia porcellus, UniProt O70528); test: Off-target radioligand binding assay; conditions: read-out: Percentage inhibition at 1 μmol/L
Human serotonin 5-HT2C = Human serotonin 5-HT2C (Homo sapiens, UniProt P28335); test: Off-target radioligand binding assay; conditions: read-out: Percentage inhibition at 1 μmol/L
Human dopamine D1 = Human dopamine D1 (Homo sapiens, UniProt P21728); test: Off-target radioligand binding assay; conditions: read-out: Percentage inhibition at 1 μmol/L
Human adrenergic β2 = Human adrenergic β2 (Homo sapiens, UniProt P07550); test: Off-target radioligand binding assay; conditions: read-out: Percentage inhibition at 1 μmol/L
Human adrenergic α1A = Human adrenergic α1A (Homo sapiens, UniProt P35348); test: Off-target radioligand binding assay
Human histamine H1 = Human histamine H1 (Homo sapiens, UniProt P35367); test: Off-target radioligand binding assay
Human adrenergic α1B = Human adrenergic α1B (Homo sapiens, UniProt P35368); test: Off-target radioligand binding assay; conditions: read-out: Percentage inhibition at 1 μmol/L
rats [12] = test: Rat forced swimming test; assay type: in vivo; conditions: vs vehicle
Human opiate μ = Human opiate μ (Homo sapiens, UniProt P35372); test: Off-target radioligand binding assay; conditions: read-out: Percentage inhibition at 1 μmol/L
[13] = Pharmacokinetics of DSP-1053 in male rats; assay type: in vivo; conditions: Crl:CD(SD), rat, plasma
[14] = biological target: human monoamine oxidase-A (Homo sapiens, UniProt P21397); test: Off-target enzyme assay, 14C-labeled substrate; assay type: biochemical; conditions: read-out: percent inhibition
Human adrenergic β1 = Human adrenergic β1 (Homo sapiens, UniProt P08588); test: Off-target radioligand binding assay; conditions: read-out: Percentage inhibition at 1 μmol/L
Suncus murinus [15] = conditions: ref Mine et al. [2013], cited from earlier work; for Number of animals vomited/tested: single dose
human 5-HT1A receptor = human 5-HT1A receptor (Homo sapiens, UniProt P08908); test: biochemical; conditions: read-out: I.A. (intrinsic activity), GTPγS binding
[16] = olfactory bulbectomized animals, 0.3, 1 and 3 mg/kg, 1- and 2-week administration
[17] = sham-operated animals, 0.3, 1 and 3 mg/kg, 1- and 2-week administration
[18] = read-out: Percentage inhibition at 1 μmol/L
[19] = 1-week administration, vs vehicle
[20] = sham-operated animals, 2-week administration

Chain of Human dopamine D3 (P35462 whole entry): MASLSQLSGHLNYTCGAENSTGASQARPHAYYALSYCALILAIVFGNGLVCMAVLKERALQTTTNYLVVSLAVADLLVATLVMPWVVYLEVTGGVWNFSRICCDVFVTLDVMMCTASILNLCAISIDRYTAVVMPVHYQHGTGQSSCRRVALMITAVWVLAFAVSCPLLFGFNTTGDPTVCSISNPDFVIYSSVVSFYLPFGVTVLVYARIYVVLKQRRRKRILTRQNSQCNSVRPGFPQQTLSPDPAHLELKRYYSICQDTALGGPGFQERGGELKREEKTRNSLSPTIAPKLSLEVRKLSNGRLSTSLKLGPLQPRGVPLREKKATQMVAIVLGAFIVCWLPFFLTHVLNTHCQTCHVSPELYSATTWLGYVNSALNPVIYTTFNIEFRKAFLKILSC
Chain of Human serotonin 5-HT7 (P34969 whole entry): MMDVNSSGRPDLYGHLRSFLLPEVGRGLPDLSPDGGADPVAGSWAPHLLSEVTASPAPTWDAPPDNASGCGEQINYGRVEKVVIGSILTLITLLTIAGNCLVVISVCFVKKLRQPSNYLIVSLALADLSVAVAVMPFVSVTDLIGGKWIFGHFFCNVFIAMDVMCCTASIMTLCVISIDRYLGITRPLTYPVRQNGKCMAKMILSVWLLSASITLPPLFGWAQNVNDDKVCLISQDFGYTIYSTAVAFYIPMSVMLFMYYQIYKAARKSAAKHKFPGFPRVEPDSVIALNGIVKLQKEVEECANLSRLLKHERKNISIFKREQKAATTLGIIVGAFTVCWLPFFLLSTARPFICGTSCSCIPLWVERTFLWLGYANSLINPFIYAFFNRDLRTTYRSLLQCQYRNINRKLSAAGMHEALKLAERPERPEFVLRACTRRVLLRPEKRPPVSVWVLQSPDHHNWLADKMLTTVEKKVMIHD
Chain of Human adrenergic α1A (P35348 whole entry): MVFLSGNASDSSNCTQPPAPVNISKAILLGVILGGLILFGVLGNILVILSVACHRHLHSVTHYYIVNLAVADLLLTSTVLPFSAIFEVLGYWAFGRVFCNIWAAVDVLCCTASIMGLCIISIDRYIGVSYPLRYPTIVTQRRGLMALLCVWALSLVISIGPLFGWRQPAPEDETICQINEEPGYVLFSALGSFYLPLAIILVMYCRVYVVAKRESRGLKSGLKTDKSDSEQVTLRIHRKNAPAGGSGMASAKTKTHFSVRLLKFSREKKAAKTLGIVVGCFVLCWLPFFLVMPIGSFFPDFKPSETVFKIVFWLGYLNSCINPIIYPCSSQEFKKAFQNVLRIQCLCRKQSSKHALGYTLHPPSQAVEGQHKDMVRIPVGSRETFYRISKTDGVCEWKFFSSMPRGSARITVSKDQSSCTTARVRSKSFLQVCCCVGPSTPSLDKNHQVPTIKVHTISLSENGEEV
Chain of Human serotonin 5-HT2B (P41595 whole entry): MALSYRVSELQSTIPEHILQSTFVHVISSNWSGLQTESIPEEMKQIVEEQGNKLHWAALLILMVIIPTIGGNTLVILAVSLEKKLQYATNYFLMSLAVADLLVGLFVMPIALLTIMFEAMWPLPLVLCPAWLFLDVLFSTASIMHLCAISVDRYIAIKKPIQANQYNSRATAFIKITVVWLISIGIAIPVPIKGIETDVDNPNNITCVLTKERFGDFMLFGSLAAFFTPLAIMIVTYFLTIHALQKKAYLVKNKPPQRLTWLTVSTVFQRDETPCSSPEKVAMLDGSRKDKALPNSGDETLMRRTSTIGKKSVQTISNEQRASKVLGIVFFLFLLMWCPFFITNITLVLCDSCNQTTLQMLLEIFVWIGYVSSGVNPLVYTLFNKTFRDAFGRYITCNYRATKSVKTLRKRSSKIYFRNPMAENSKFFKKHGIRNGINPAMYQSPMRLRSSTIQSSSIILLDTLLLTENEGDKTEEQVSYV
Chain of Human histamine H1 (P35367 whole entry): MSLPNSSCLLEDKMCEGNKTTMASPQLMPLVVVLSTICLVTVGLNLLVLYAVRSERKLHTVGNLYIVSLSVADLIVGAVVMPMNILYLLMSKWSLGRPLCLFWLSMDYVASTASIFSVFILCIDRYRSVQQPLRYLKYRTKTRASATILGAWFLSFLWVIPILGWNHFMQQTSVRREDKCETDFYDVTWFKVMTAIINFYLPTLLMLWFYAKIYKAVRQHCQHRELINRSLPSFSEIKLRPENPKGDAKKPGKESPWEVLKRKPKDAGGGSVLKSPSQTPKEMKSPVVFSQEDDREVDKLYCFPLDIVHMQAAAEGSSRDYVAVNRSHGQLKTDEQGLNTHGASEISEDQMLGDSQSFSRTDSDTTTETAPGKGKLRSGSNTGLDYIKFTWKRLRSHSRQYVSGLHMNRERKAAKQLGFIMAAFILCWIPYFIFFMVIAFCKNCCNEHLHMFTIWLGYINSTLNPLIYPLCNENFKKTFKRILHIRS
Chain of Human adrenergic α2B (P18089 whole entry): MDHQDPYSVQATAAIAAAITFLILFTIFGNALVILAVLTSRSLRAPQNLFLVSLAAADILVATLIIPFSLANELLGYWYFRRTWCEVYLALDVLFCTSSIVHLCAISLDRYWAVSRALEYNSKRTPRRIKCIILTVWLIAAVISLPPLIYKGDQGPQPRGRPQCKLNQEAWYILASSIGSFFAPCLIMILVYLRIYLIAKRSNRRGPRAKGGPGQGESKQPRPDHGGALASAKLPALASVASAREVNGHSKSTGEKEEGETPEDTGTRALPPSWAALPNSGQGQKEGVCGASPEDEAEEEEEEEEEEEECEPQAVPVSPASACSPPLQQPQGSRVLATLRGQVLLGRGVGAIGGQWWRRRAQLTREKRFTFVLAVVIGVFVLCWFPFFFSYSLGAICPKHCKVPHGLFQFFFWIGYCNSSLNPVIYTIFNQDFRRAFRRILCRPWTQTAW
Chain of Human serotonin 5-HT3 (P46098 24-478): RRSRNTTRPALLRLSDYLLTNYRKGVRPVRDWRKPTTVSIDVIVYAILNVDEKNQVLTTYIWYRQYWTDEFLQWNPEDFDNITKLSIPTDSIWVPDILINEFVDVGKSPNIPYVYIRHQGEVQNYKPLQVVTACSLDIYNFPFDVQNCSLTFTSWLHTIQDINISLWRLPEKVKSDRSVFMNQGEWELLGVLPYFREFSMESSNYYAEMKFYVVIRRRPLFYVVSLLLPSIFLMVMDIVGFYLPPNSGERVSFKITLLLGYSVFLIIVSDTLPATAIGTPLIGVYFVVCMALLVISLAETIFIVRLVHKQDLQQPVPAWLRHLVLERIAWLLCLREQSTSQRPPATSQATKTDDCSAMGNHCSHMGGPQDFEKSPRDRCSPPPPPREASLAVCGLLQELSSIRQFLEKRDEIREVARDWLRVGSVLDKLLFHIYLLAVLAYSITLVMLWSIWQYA
Chain of pig catechol-O-methyltransferase (Q99028 whole entry): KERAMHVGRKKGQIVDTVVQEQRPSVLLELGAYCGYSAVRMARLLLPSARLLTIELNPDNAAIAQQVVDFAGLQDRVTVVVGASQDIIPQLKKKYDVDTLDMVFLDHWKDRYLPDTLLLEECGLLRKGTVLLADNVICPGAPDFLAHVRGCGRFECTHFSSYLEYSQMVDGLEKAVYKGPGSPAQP
Chain of rat serotonin transporter (P31652 whole entry): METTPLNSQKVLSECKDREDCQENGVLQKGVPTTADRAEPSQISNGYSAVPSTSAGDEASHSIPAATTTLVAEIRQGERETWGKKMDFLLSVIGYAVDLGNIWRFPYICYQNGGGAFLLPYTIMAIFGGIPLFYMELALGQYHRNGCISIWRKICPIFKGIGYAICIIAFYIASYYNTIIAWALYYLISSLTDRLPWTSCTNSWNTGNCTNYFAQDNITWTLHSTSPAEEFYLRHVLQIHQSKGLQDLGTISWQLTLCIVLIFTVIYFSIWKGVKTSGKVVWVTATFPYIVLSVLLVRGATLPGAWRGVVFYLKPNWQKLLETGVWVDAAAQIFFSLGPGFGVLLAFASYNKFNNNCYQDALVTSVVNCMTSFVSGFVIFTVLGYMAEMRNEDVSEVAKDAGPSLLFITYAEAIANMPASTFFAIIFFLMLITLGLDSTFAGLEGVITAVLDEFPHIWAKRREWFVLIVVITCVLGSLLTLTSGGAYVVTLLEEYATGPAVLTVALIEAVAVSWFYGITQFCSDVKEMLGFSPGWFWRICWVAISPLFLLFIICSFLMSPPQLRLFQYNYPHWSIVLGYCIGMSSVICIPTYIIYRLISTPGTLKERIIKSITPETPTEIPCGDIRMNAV
Chain of human 5-HT1A receptor (P08908 whole entry): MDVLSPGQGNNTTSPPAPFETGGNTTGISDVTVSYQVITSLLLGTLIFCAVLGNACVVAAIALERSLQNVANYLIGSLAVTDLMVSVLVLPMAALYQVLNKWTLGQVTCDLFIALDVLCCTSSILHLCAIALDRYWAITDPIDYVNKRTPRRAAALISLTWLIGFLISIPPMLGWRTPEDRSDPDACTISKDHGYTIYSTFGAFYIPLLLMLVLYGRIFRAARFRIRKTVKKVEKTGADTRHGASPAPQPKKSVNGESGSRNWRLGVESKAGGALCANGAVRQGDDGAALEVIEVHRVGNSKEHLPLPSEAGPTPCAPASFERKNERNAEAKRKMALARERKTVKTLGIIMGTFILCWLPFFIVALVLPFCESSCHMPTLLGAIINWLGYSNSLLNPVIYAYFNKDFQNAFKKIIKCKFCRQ
Chain of Human serotonin 5-HT2A (P28223 whole entry): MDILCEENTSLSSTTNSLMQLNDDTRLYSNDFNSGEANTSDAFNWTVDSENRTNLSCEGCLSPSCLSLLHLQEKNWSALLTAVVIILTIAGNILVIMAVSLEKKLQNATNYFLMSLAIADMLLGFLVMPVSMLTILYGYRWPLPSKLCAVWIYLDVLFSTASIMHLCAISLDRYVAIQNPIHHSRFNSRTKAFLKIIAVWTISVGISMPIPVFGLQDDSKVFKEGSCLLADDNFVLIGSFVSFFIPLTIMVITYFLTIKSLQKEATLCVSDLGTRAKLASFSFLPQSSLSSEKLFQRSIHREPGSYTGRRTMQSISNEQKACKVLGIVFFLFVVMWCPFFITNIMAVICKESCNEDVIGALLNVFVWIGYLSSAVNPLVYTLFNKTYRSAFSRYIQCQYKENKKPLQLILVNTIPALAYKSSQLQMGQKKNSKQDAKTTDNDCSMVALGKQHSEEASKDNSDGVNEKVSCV

SMILES: COCCOc1cc(CC2CCN(CCc3ccc4c(c3)C(=O)CCO4)CC2)ccc1Br.O=S(=O)(O)c1ccccc1 [DSP-1053, 6-(2-{4-[4-Bromo-3-(2-methoxyethoxy)benzyl]piperidin-1-yl}ethyl)-2,3-dihydro-4H-chromen-4-one benzenesulfonate]
- emotional scores [1, 16]: reduced; also recorded: significant decrease
- emotional scores [1, 17]: no effect
- inhibition at 1 µM (Human adrenergic α2C): 41%
- number of line crosses [2, 16]: reduced; also recorded: significant decrease
- number of line crosses [2, 17]: no effect
- inhibition at 1 µM (Human serotonin 5-HT1B): 47%
- inhibition at 1 µM (Human adrenergic α2A): 26%
- Percentage inhibition at 1 μmol/L (Rat GABAA): 8%
- Number of animals vomited/tested (Suncus murinus [3]; 10 mg kg^−1 po): 0 and 0/6
- Number of animals vomited/tested (Suncus murinus [3]; 30 mg kg^−1 po): 1 and 1/6
- Total emetic episode (Suncus murinus [3]; 30 mg kg^−1 po): 2
- Number of animals vomited/tested (Suncus murinus [3]; 60 mg kg^−1 po): 3 and 3/6
- Total emetic episode (Suncus murinus [3]; 60 mg kg^−1 po, mean ± SEM): 5.3 ± 1.0
- inhibition at 1 µM (Human opiate κ): 0%
- inhibition at 1 µM (Human adrenergic α2B): 6%
- inhibition at 1 µM [4]: 0%
- inhibition at 1 µM [5]: 0.19%
- Ki [6]: 0.489 ± 0.039 nM
- saccharin consumption (rats [7]): significantly inhibited
- Ki (Human dopamine D3): 249 ± 21 nM
- inhibition at 1 µM (Human dopamine D3; [18]): 65%
- maximum increase of 5-HT extracellular levels, % of baseline value ([8]; 3 mg kg^−1 p.o.): 180 ± 25.9%
- maximum increase of 5-HT extracellular levels, % of baseline value ([8]; 10 mg kg^−1 p.o.): 264 ± 58.0%
- extracellular 5-HT levels ([8]; given once at 3 and 10 mg kg^−1): dose-dependently increased
- inhibition at 1 µM (Human musucarinic M2): 21%
- inhibition at 1 µM (Human histamine H2): 37%
- Ki (Human serotonin 5-HT7): 288 ± 35 nM
- inhibition at 1 µM (Human serotonin 5-HT7; [18]): 73%
- inhibition at 1 µM (Human serotonin 5-HT6): 14%
- inhibition at 1 µM (Human serotonin 5-HT5A): 2%
- inhibition at 1 µM (Human serotonin 5-HT2A): 35%
- inhibition at 1 µM (Human dopamine D2L): 35%
- inhibition at 1 µM (Human musucarinic M1): 9%
- inhibition at 1 µM (Human serotonin 5-HT3): 0%
- dopamine extracellular levels in the rat frontal cortex [9]: did not affect
- Ki (Human serotonin 5-HT2B): 117 ± 28 nM
- inhibition at 1 µM (Human serotonin 5-HT2B; [18]): 79%
- inhibition at 1 µM (Human opiate δ): 10%
- inhibition at 1 µM (Human adrenergic β3): 19%
- number of animals that showed emesis on the first day, of 19 animals (Suncus murinus [10]): 9
- inhibition at 1 µM [11]: 26%
- inhibition at 1 µM (Human serotonin 5-HT2C): 20%
- inhibition at 1 µM (Human dopamine D1): 4%
- inhibition at 1 µM (Human adrenergic β2): 22%
- Ki (Human adrenergic α1A): 528 ± 45 nM
- inhibition at 1 µM (Human adrenergic α1A; [18]): 57%
- Ki (Human histamine H1): 7.46 ± 0.2 nM
- inhibition at 1 µM (Human histamine H1; [18]): 93%
- inhibition at 1 µM (Human adrenergic α1B): 1%
- immobility time (rats [12]; 2-week consecutive administration, 1 mg kg^−1 p.o.): significantly decreased
- immobility time (rats [12]; 2-week consecutive administration, 1 mg kg^−1 p.o., listed as DSR-1053): significantly reduced
- inhibition at 1 µM (Human opiate μ): 2%
- clearance ([13]; iv, 1 mg/kg): 57.6 mL/min/kg
- Tmax ([13]; po, 10 mg/kg): ≤ 1 h
- inhibition at 1 µM [14]: 5.28%
- inhibition at 1 µM (Human adrenergic β1): 14%

SMILES: Fc1ccc([C@@H]2CCNC[C@H]2COc2ccc3c(c2)OCO3)cc1 [Paroxetine, paroxetine hydrochloride, reference compound]
- emotional scores [1, 19]: did not alter
- emotional scores ([1]; olfactory bulbectomized animals, 3 and 10 mg/kg, 2-week administration): significant decrease
- emotional scores [1, 20]: no effect
- number of line crosses [2, 19]: did not alter
- number of line crosses ([2]; olfactory bulbectomized animals, 10 mg/kg, 2-week administration): significant decrease
- number of line crosses [2, 20]: no effect
- number of animals that showed emesis on the first day, of 19 animals (Suncus murinus [10]): 12
- immobility time (rats [12]; 2-week administration): no effect
- immobility time (rats [12]; 3-week administration, 3 and 10 mg kg^−1 p.o.): reduced immobility time
- Number of animals vomited/tested (Suncus murinus [15]; 10 mg kg^−1 po): 0/6
- Number of animals vomited/tested (Suncus murinus [15]; 10 mg kg^−1 po, listed as paroxetine): 0
- Number of animals vomited/tested (Suncus murinus [15]; 30 mg kg^−1 po): 2/6
- Number of animals vomited/tested (Suncus murinus [15]; 30 mg kg^−1 po, listed as paroxetine): 2
- Total emetic episode (Suncus murinus [15]; 30 mg kg^−1 po, 1 h observation, animals that vomited): 6.8
- Number of animals vomited/tested (Suncus murinus [15]; 60 mg kg^−1 po): 6/6 ^*
- Number of animals vomited/tested (Suncus murinus [15]; 60 mg kg^−1 po, listed as paroxetine): 6

- Emax (human 5-HT1A receptor): 13.3 ± 3.8%
SMILES: CC(C)NCC(O)COc1cccc2[nH]ccc12 (stereo not shown) [Pindolol, pindolol]
